Legend:
[1] = biological target: Adenosine receptor A1 (Rattus norvegicus) (UniProt P25099); test: Antagonist activity against adenosine A1 receptor in rat adipocytes
[2] = biological target: Adenosine receptor A2 (Homo sapiens); test: Antagonistic activity against adenosine A2 receptor in human platelets

SMILES	Ki [1] [nM]	Ki [2] [nM]
CCCNC(=O)C1CCC(c2nc3c([nH]2)c(=O)n(CCC)c(=O)n3CCC)CC1 (centres undefined)	85	> 3000
CCCn1c(=O)c2nc(C3CCC(C(=O)OC)CC3)[nH]c2n(CCC)c1=O (centres undefined)	130	560
CCCn1c(=O)c2nc(C3=C(C(=O)O)CCC3)[nH]c2n(CCC)c1=O	> 10000	> 10000
CCCn1c(=O)c2nc(N3CCCC3)[nH]c2n(CCC)c1=O	76	–
CCCn1c(=O)c2[nH]c(C34CC5CC(CC(C5)C3)C4)nc2n(CCC)c1=O	82	–
CCCn1c(=O)c2nc(C3CCC3C(=O)O)[nH]c2n(CCC)c1=O (centres undefined)	660	> 10000
CCCn1c(=O)c2nc(C3CCC(C(=O)O)CC3)[nH]c2n(CCC)c1=O (stereo in doubt; 1)	430	> 10000
CCCn1c(=O)c2nc(C3CCCCC3C(=O)O)[nH]c2n(CCC)c1=O (stereo in doubt; 3)	> 10000	> 10000
CCCn1c(=O)c2nc(C3CCCCC3C(=O)O)[nH]c2n(CCC)c1=O (stereo in doubt; 4)	> 3000	> 3000
CCCn1c(=O)c2[nH]c(C3CCC(N)CC3)nc2n(CCC)c1=O (stereo in doubt; 6)	90	–
CCCn1c(=O)c2[nH]c(C3CCC(N)CC3)nc2n(CCC)c1=O (stereo in doubt; 7)	160	–
CCCn1c(=O)c2nc(C3CCC(C(=O)N(C)CCN(C)C)CC3)[nH]c2n(CCC)c1=O (stereo in doubt; 15)	85	450
CCCn1c(=O)c2nc(C3CCCC3C(=O)O)[nH]c2n(CCC)c1=O (stereo in doubt; 17)	140	> 10000
CCCn1c(=O)c2nc(C3CCCC3C(=O)N(C)CCN(C)C)[nH]c2n(CCC)c1=O (stereo in doubt; 19)	> 3000	> 3000
CCCn1c(=O)c2nc(C3CCCC3C(=O)O)[nH]c2n(CCC)c1=O (trans isomer)	100	> 10000

Now those with a lower Ki [1], led by results:

Ki [1] [nM]	Ki [2] [nM]	SMILES
8	–	CCCn1c(=O)c2nc([C@H]3CC[C@H](CNC(C)=O)CC3)[nH]c2n(CCC)c1=O
69	> 10000	CCCn1c(=O)c2nc(CC3CCCC3)[nH]c2n(CCC)c1=O
2.6	120	CCCn1c(=O)c2nc(NC3CCC3)[nH]c2n(CCC)c1=O
41	1000	CCCn1c(=O)c2nc(C3CCCC(NC(C)=O)C3)[nH]c2n(CCC)c1=O (centres undefined)
8	130	CCCn1c(=O)c2nc(NC3CCCC3)[nH]c2n(CCC)c1=O
22	490	CCCn1c(=O)c2nc(N3CCCCC3)[nH]c2n(CCC)c1=O
20	–	CCCn1c(=O)c2nc(C3CCC(CN)CC3)[nH]c2n(CCC)c1=O (centres undefined)
50	> 10000	CCCn1c(=O)c2nc(C3CCCC(N)C3)[nH]c2n(CCC)c1=O (centres undefined)
11	> 10000	CCCn1c(=O)c2nc(C3CC3C)[nH]c2n(CCC)c1=O (centres undefined)
14	680	CCCn1c(=O)c2nc(NC3CCCCC3)[nH]c2n(CCC)c1=O
59	1500	CCCn1c(=O)c2nc(C3CCC(C(=O)O)CC3)[nH]c2n(CCC)c1=O (stereo in doubt; 2)
12	> 10000	CCCn1c(=O)c2nc(C3CCC(NC(C)=O)CC3)[nH]c2n(CCC)c1=O (stereo in doubt; 9)
70	1000	CCCn1c(=O)c2nc(C3CCC(NC(C)=O)CC3)[nH]c2n(CCC)c1=O (stereo in doubt; 10)
17	260	CCCn1c(=O)c2nc(C3CCC(C(=O)N(C)CCN(C)C)CC3)[nH]c2n(CCC)c1=O (stereo in doubt; 14)
53	> 10000	CCCn1c(=O)c2nc(C3CCCC3C(=O)N(C)CCN(C)C)[nH]c2n(CCC)c1=O (stereo in doubt; 20)

— ChEMBL document CHEMBL1125093, “Structure-activity relationships of 8-cycloalkyl-1,3-dipropylxanthines as antagonists of adenosine receptors” (J Med Chem, 1990)
